Test results as given in patent publication US9180134B2, “Mitochondrial ribosomal proteins as aging regulators” (ECOLE POLYTECHNIQUE FEDERALE DE LAUSANNE (EPEL), priority 2011, dated 2015).

How the values were obtained:
[1] = system: C. elegans; assay: Worm lifespan analysis; assay type: in vivo; conditions: antibiotic from eggs to L4 larval stage, heat-killed bacteria; 20° C
Protocol: Lifespan tests were performed as described (Mouchiroud et al., 2011, Aging Cell 10, 39). Briefly, 60-100 animals were used per conditions and scored every other day. All lifespan experiments were performed at 20° C. […] Treatments with antibiotics (carbenicillin, doxycycline, and chloramphenicol (all Sigma)) were performed with heat-killed bacteria (Wood et al., 2004, Nature 430, 686). Carbenicillin, doxycycline, and chloramphenicol were added at the indicated concentrations. Animals were exposed to antibiotics from eggs to L4 larval stage and then shifted on plates seeded with live OP50 bacteria.

[2] = system: C. elegans; assay: Worm respiration assay (Seahorse XF24); assay type: in vivo; conditions: worms treated with antibiotic
Protocol: Treatments with antibiotics (carbenicillin, doxycycline, and chloramphenicol (all Sigma)) were performed with heat-killed bacteria (Wood et al., 2004, Nature 430, 686). Carbenicillin, doxycycline, and chloramphenicol were added at the indicated concentrations. Animals were exposed to antibiotics from eggs to L4 larval stage and then shifted on plates seeded with live OP50 bacteria. Oxygen consumption was measured using the Seahorse XF24 equipment (Seahorse Bioscience Inc., North Billerica, Mass.). Typically, 200 animals per conditions were recovered from NGM plates with M9 medium, washed three times in 2 mL M9 to eliminate residual bacteria, and resuspended in 500 μL M9 medium. Worms were transferred in 24-well standard Seahorse plates (#100777-004) (50 worms per well) and oxygen consumption was measured 6 times. Respiration rates were normalized to the number of worms in each individual well.

[3] = system: mitochondrial unfolded protein response (UPR^mt); assay: UPR^mt GFP reporter worms (hsp-6::GFP); assay type: in vivo, C. elegans; conditions: Day 1 adults
Protocol: Treatments with antibiotics (carbenicillin, doxycycline, and chloramphenicol (all Sigma)) were performed with heat-killed bacteria (Wood et al., 2004, Nature 430, 686). Carbenicillin, doxycycline, and chloramphenicol were added at the indicated concentrations. Animals were exposed to antibiotics from eggs to L4 larval stage and then shifted on plates seeded with live OP50 bacteria. GFP expression and quantification were carried out according to the protocol previously described (Durieux et al, 2011, Cell 144, 79). Briefly, GFP was monitored in Day 1 adults. Fluorimetric assays were performed using a Victor X4 multilabel plate reader (Perkin-Elmer Life Science). Eighty roller worms were picked at random (20 worms per well of a black-walled 96-well plate) and each well was read four times and averaged. Each experiment was repeated at least twice. For picture acquisition, animals were mounted on 2% agarose pads in a droplet of 10 mM tetramisole (Sigma) and examined using a Zeiss Axioplan-2 microscope (Carl Zeiss MicroImaging, Thornwood, N.Y., USA) equipped for both DIC and epifluorescence. Images were obtained using a Coolsnap ES^2 camera.

[4] = system: Hepa1-6 mouse liver cells; assay: Oxygen consumption in Hepa1-6 cells (Seahorse XF24); assay type: cell-based; conditions: 48 h incubation, normalized for protein content
Protocol: (§1) Hepa1-6 mouse liver cells were maintained in DMEM medium containing 4.5 g/l glucose and 10% fetal calf serum. Hepa1-6 cells were incubated for 48 h with doxycycline or chloramphenicol (both Sigma) in medium containing 1 g/l glucose, with 1% (v/v) oleate-BSA (Sigma) supplementation, and without any other antibiotics. Oxygen consumption in Hepa1-6 cells was measured using the Seahorse XF24 equipment (Watanabe et al., 2006, Nature 439, 484), and normalized for protein content. ATP content was measured using CellTiter-Glo (Promega), according to the manufacturer's protocol.

[5] = system: Hepa1-6 mouse liver cells; assay: ATP content (CellTiter-Glo) in Hepa1-6 cells; assay type: cell-based; conditions: data not shown
Protocol: as §1

[6] = system: C57BL/6N mice; assay: Mouse indirect calorimetry (CLAMS); assay type: in vivo; conditions: C57BL/6 mice, chow containing doxycycline for 10 days, data not shown
Protocol: Wild type C57BL/6N mice were treated for 10 days with 50 mpkd doxycycline (Sigma) in food admix. Oxygen consumption (VO2), respiratory exchange ratios (RER), and activity were monitored by indirect calorimetry using the comprehensive laboratory animal monitoring system (CLAMS) (Columbus Instruments, Columbus, Ohio, USA).

SMILES	lifespan of C. elegans [1]	oxygen consumption (respiration) of C. elegans [2]	UPR^mt induction in C. elegans [3]	respiration (oxygen consumption) in Hepa1-6 cells [4]	cell viability as measured by ATP levels [5]	activity [6]	body weight [6]	food intake [6]
O=C(N[C@H](CO)[C@H](O)c1ccc([N+](=O)[O-])cc1)C(Cl)Cl [chloramphenicol]	extended lifespan	decreased respiration	induced UPR^mt	decreased respiration	–	–	–	–
C[C@H]1c2cccc(O)c2C(=O)C2=C(O)[C@]3(O)C(=O)C(C(N)=O)=C(O)[C@@H](N(C)C)[C@@H]3[C@@H](O)[C@@H]21 [doxycycline]	–	–	–	–	without affecting cell viability	without changes	without changes	without changes
